# In PubChem BioAssay (NCI):
#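 A five-concentration, 48-hour dose response in 96-well plates underlies each endpoint, interpolated linearly between surrounding concentrations. At the GI50, growth is halved. TGI marks complete inhibition of growth.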
# Columns and labels:
# Test in all cases: growth of human tumour cells (NCI), 48 h
# 786-0 renal = test system: 786-0 renal
# A498 renal = test system: A498 renal
# A549 NSCLC = test system: A549 NSCLC
# ACHN renal = test system: ACHN renal
# BT-549 breast = test system: BT-549 breast
# CAKI-1 renal = test system: CAKI-1 renal
# CCRF-CEM leukemia = test system: CCRF-CEM leukemia
# COLO 205 colon = test system: COLO 205 colon
# DU-145 prostate = test system: DU-145 prostate
# EKVX NSCLC = test system: EKVX NSCLC
# HCC-2998 colon = test system: HCC-2998 colon
# HCT-116 colon = test system: HCT-116 colon
# HCT-15 colon = test system: HCT-15 colon
# HL-60(TB) leukemia = test system: HL-60(TB) leukemia
# HOP-62 NSCLC = test system: HOP-62 NSCLC
# HOP-92 NSCLC = test system: HOP-92 NSCLC
# HS 578T breast = test system: HS 578T breast
# HT29 colon = test system: HT29 colon
# IGROV1 ovarian = test system: IGROV1 ovarian
# K-562 leukemia = test system: K-562 leukemia
# KM12 colon = test system: KM12 colon
# LOX IMVI melanoma = test system: LOX IMVI melanoma
# M14 melanoma = test system: M14 melanoma
# MALME-3M melanoma = test system: MALME-3M melanoma
# MCF7 breast = test system: MCF7 breast
# MDA-MB-231 breast = test system: MDA-MB-231 breast
# MDA-MB-435 = test system: MDA-MB-435
# MDA-MB-468 breast = test system: MDA-MB-468 breast
# MOLT-4 leukemia = test system: MOLT-4 leukemia
# NCI-H226 lung = test system: NCI-H226 lung
# NCI-H23 lung = test system: NCI-H23 lung
# NCI-H460 lung = test system: NCI-H460 lung
# NCI-H522 lung = test system: NCI-H522 lung
# NCI/ADR-RES ovarian = test system: NCI/ADR-RES ovarian
# OVCAR-3 ovarian = test system: OVCAR-3 ovarian
# OVCAR-4 ovarian = test system: OVCAR-4 ovarian
# OVCAR-5 ovarian = test system: OVCAR-5 ovarian
# OVCAR-8 ovarian = test system: OVCAR-8 ovarian
# PC-3 prostate = test system: PC-3 prostate
# RPMI-8226 leukemia = test system: RPMI-8226 leukemia
# RXF 393 renal = test system: RXF 393 renal
# SF-268 CNS = test system: SF-268 CNS
# SF-295 CNS = test system: SF-295 CNS
# SF-539 CNS = test system: SF-539 CNS
# SK-MEL-2 melanoma = test system: SK-MEL-2 melanoma
# SK-MEL-28 melanoma = test system: SK-MEL-28 melanoma
# SK-MEL-5 melanoma = test system: SK-MEL-5 melanoma
# SK-OV-3 ovarian = test system: SK-OV-3 ovarian
# SN12C renal = test system: SN12C renal
# SNB-19 CNS = test system: SNB-19 CNS
# SNB-75 CNS = test system: SNB-75 CNS
# SR leukemia = test system: SR leukemia
# SW-620 colon = test system: SW-620 colon
# T-47D breast = test system: T-47D breast
# TK-10 renal = test system: TK-10 renal
# U251 CNS = test system: U251 CNS
# UACC-257 melanoma = test system: UACC-257 melanoma
# UACC-62 melanoma = test system: UACC-62 melanoma
# UO-31 renal = test system: UO-31 renal
compound,measurement,setting,value
O=C(CSc1nc2ccccc2c(=O)n1-c1ccc(Cl)cc1)Nc1ccc(-c2nc3ccccc3[nH]2)cc1,GI50,786-0 renal,1.88 µM
same,TGI,786-0 renal,3.69 µM
same,GI50,A498 renal,15.9 µM
same,TGI,A498 renal,29.3 µM
same,GI50,A549 NSCLC,1.57 µM
same,TGI,A549 NSCLC,3.01 µM
same,GI50,ACHN renal,3.28 µM
same,TGI,ACHN renal,10.7 µM
same,GI50,BT-549 breast,5.33 µM
same,TGI,BT-549 breast,17.5 µM
same,GI50,CAKI-1 renal,4.51 µM
same,TGI,CAKI-1 renal,15.6 µM
same,GI50,CCRF-CEM leukemia,4.39 µM
same,TGI,CCRF-CEM leukemia,19.5 µM
same,GI50,COLO 205 colon,2.52 µM
same,TGI,COLO 205 colon,8.14 µM
same,GI50,DU-145 prostate,2.12 µM
same,TGI,DU-145 prostate,4.76 µM
same,GI50,EKVX NSCLC,3.95 µM
same,TGI,EKVX NSCLC,14.8 µM
same,GI50,HCC-2998 colon,3.12 µM
same,TGI,HCC-2998 colon,11.6 µM
same,GI50,HCT-116 colon,1.91 µM
same,TGI,HCT-116 colon,3.65 µM
same,GI50,HCT-15 colon,1.57 µM
same,TGI,HCT-15 colon,3.77 µM
same,GI50,HL-60(TB) leukemia,6.92 µM
same,TGI,HL-60(TB) leukemia,21.7 µM
same,GI50,HOP-62 NSCLC,2 µM
same,TGI,HOP-62 NSCLC,4.11 µM
same,GI50,HOP-92 NSCLC,1.66 µM
same,TGI,HOP-92 NSCLC,5.33 µM
same,GI50,HS 578T breast,2.12 µM
same,TGI,HS 578T breast,4.82 µM
same,GI50,HT29 colon,2.1 µM
same,TGI,HT29 colon,4.46 µM
same,GI50,IGROV1 ovarian,3.04 µM
same,TGI,IGROV1 ovarian,12.5 µM
same,GI50,K-562 leukemia,3.02 µM
same,TGI,K-562 leukemia,11.5 µM
same,GI50,KM12 colon,10.9 µM
same,TGI,KM12 colon,40 µM
same,GI50,LOX IMVI melanoma,1.55 µM
same,TGI,LOX IMVI melanoma,2.89 µM
same,GI50,M14 melanoma,2.48 µM
same,TGI,M14 melanoma,7.06 µM
same,GI50,MALME-3M melanoma,1.96 µM
same,TGI,MALME-3M melanoma,4.47 µM
same,GI50,MCF7 breast,1.31 µM
same,TGI,MCF7 breast,2.85 µM
same,GI50,MDA-MB-231 breast,1.91 µM
same,TGI,MDA-MB-231 breast,3.86 µM
same,GI50,MDA-MB-435,2.05 µM
same,TGI,MDA-MB-435,4.53 µM
same,GI50,MDA-MB-468 breast,1.9 µM
same,TGI,MDA-MB-468 breast,4.7 µM
same,GI50,MOLT-4 leukemia,3.47 µM
same,TGI,MOLT-4 leukemia,18.1 µM
same,GI50,NCI-H226 lung,9 µM
same,TGI,NCI-H226 lung,22.5 µM
same,GI50,NCI-H23 lung,2.24 µM
same,TGI,NCI-H23 lung,5.89 µM
same,GI50,NCI-H460 lung,1.77 µM
same,TGI,NCI-H460 lung,3.38 µM
same,GI50,NCI-H522 lung,1.95 µM
same,TGI,NCI-H522 lung,4.54 µM
same,GI50,NCI/ADR-RES ovarian,2.49 µM
same,TGI,NCI/ADR-RES ovarian,7.35 µM
same,GI50,OVCAR-3 ovarian,2.05 µM
same,TGI,OVCAR-3 ovarian,4.3 µM
same,GI50,OVCAR-4 ovarian,1.88 µM
same,TGI,OVCAR-4 ovarian,3.94 µM
same,GI50,OVCAR-5 ovarian,3.12 µM
same,TGI,OVCAR-5 ovarian,13.7 µM
same,GI50,OVCAR-8 ovarian,1.83 µM
same,TGI,OVCAR-8 ovarian,3.66 µM
same,GI50,PC-3 prostate,3.01 µM
same,TGI,PC-3 prostate,10.9 µM
same,GI50,RPMI-8226 leukemia,2.78 µM
same,TGI,RPMI-8226 leukemia,10.1 µM
same,GI50,RXF 393 renal,2.09 µM
same,TGI,RXF 393 renal,5.31 µM
same,GI50,SF-268 CNS,3.67 µM
same,TGI,SF-268 CNS,15.7 µM
same,GI50,SF-295 CNS,3.3 µM
same,TGI,SF-295 CNS,11.8 µM
same,GI50,SF-539 CNS,2.11 µM
same,TGI,SF-539 CNS,4.89 µM
same,GI50,SK-MEL-2 melanoma,3.06 µM
same,TGI,SK-MEL-2 melanoma,11.9 µM
same,GI50,SK-MEL-28 melanoma,1.82 µM
same,TGI,SK-MEL-28 melanoma,3.43 µM
same,GI50,SK-MEL-5 melanoma,3.62 µM
same,TGI,SK-MEL-5 melanoma,12.8 µM
same,GI50,SK-OV-3 ovarian,10.2 µM
same,TGI,SK-OV-3 ovarian,21.9 µM
same,GI50,SN12C renal,1.73 µM
same,TGI,SN12C renal,3.3 µM
same,GI50,SNB-19 CNS,2.22 µM
same,TGI,SNB-19 CNS,5.28 µM
same,GI50,SNB-75 CNS,1.71 µM
same,TGI,SNB-75 CNS,6.04 µM
same,GI50,SR leukemia,1.42 µM
same,TGI,SR leukemia,7.77 µM
same,GI50,SW-620 colon,1.84 µM
same,TGI,SW-620 colon,3.63 µM
same,GI50,T-47D breast,1.78 µM
same,TGI,T-47D breast,3.56 µM
same,GI50,TK-10 renal,1.85 µM
same,TGI,TK-10 renal,3.64 µM
same,GI50,U251 CNS,1.84 µM
same,TGI,U251 CNS,3.23 µM
same,GI50,UACC-257 melanoma,1.94 µM
same,TGI,UACC-257 melanoma,4.55 µM
same,GI50,UACC-62 melanoma,1.99 µM
same,TGI,UACC-62 melanoma,4.59 µM
same,GI50,UO-31 renal,2.03 µM
same,TGI,UO-31 renal,5.4 µM
